Measured values published in a melting point compilation (Tetko et al.; mined from patent text by program, amines drawn as free bases though some values may be those of a salt).

In the case of `COC(=O)c1ccc2c(nc(C)n2C)c1C1=NC(C)(C(C)C)C(=O)N1` (stereo not given), the melting point is reported as 240 to 242 °C. `Nc1ccc(C(=O)NNC(=O)CCCCN2CCC(Cc3ccccc3)CC2)cc1` gave a melting point of 163 to 165 °C. Work on `COCCOC1c2ccn3c(C)c(C)nc3c2NC(c2ccccc2)C1OC(=O)CCCCO[N+](=O)[O-]` (stereo not given) yielded a melting point of 87.1 °C. `O=C1OC(Cl)(Cl)c2c(Cl)c(Cl)c(Cl)c(Cl)c21` showed a melting point of 136 to 138 °C. With `CON=C(CBr)c1ccc(Cl)cc1` the melting point was 57 to 60 °C. `CCCn1c(=Nc2ccc([N+](=O)[O-])cc2)sc2ncccc2c1=O` gave a melting point of 112 to 113 °C. In the case of `O=C1CC(CO)N1c1ccccc1` (stereo not given), the melting point is reported as 100 to 102 °C. In the case of `CCOC(=O)C#CCOCC1=C(C(=O)OCC)C(c2cccc(Cl)c2Cl)C(C(=O)OC)=C(C)N1` (stereo not given), the melting point is reported as 123 to 125 °C. For `Cc1nc(C)c(CO)c(C)n1`, the melting point was 68 °C. In the case of `O=S(=O)(NCC1CCN(C[C@H]2COc3ccc(Br)cc3O2)CC1)c1cccc(Cl)c1Cl`, the melting point is reported as 93 to 95 °C. For `CN(C)C(=O)C(O)C1c2ccccc2CCc2ccccc21` (stereo not given), the melting point was 210 to 214 °C. For `Cc1ccc(-c2ncn(-c3ccc(OC(F)(F)C(F)(F)F)cc3)n2)cc1`, the melting point was 130 to 132 °C. In the case of `O=C(Nc1ccccn1)c1cccc(-c2cccc(OCCc3ccc(Cl)cc3Cl)n2)c1`, the melting point is reported as 113 to 115 °C. In the case of `COc1ccc2c(c1)NC(=O)C(Cl)(Cl)CC2`, the melting point is reported as 148 to 150 °C. `COc1ccc(/C=C/C(=O)Nc2cc3ccccc3cc2C(=O)O)cc1OC` gave a melting point of 212 to 213 °C. Work on `CCOC(=O)c1nc2scc(COCc3ccc(F)cc3)c2c(=O)[nH]1` yielded a melting point of 195 to 196 °C. For `O=C(Nc1cc(Cl)c(N2CCOCC2)c(Cl)c1)c1ccc(F)c(OCc2cccnc2)c1`, the melting point was 209 to 211 °C. `O=C(NCCCn1ccc2cc(NC(=O)c3nc4ccc(Cl)cc4n3Cc3ccccc3)ccc21)c1cccnc1` showed a melting point of 206 to 207 °C. `Nc1ccc(NC=C(S(=O)(=O)c2ccccc2)S(=O)(=O)c2ccccc2)nc1` gave a melting point of 172 to 174 °C. Work on `Cc1c(NC(=O)c2ccc(-c3ccc(F)cc3)cc2)ccc2cc(CN3CCC3)cnc12` yielded a melting point of 153 to 155 °C. Compound `O=C(O)C1CCCN1c1ncccc1[N+](=O)[O-]` (stereo not given) has a melting point of 137 to 139 °C. In the case of `Nc1ncnc2c1ncn2Cc1nc2ccc(Br)cc2c(=O)n1-c1ccccc1Cl`, the melting point is reported as 284 to 285 °C. In the case of `N#Cc1c(Cl)ccc2ccccc12`, the melting point is reported as 82 to 83 °C. Work on `CC(Cl)CC1Oc2ncccc2C(=S)NC1C` (stereo not given) yielded a melting point of 95 to 97 °C. With `NC(=O)c1c(I)cc(I)c(C(N)=O)c1I` the melting point was 245 to 248 °C. In the case of `Nc1ccc2c(c1Br)C(=O)CCC2`, the melting point is reported as 93 to 96 °C. In the case of `CC(c1ccc(Br)cc1)N(O)C(=O)NCCO` (stereo not given), the melting point is reported as 117 to 119 °C. `CC(C)(C)OC(=O)n1cccc1-c1ccc(C[C@H](NC(=O)c2c(Cl)cccc2Cl)C(=O)O)cc1` gave a melting point of 98 to 99 °C. `Nc1nc(N)nc(C2CN(C(c3ccccc3)c3ccccc3)C2)n1` gave a melting point of 126 to 128 °C. With `COc1cccc(C23CCCC=C2C(=O)NC(=O)C3)c1` (stereo not given) the melting point was 230 to 232 °C. In the case of `O=C=Nc1ccc(Cl)cc1[N+](=O)[O-]`, the melting point is reported as 54 to 56 °C. In the case of `Cc1c(F)c(N2CCNC(C)C2)cc2c1c(=O)c(C(=O)O)cn2C1CC1` (stereo not given), the melting point is reported as 189 to 192 °C. `COC(=O)c1cccc(OCc2nc(-c3ccccc3)oc2C)n1` gave a melting point of 97 to 98 °C. With `C#CCOc1ccc(C(=O)OC)c(O)c1` the melting point was 142 °C. With `O=C1C(c2ccccc2)c2ccccc2SN1c1ccccc1O` (stereo not given) the melting point was 165 to 168 °C. In the case of `CC(=O)N(C[C@H]1CN(c2ccc(N3CCC4(CC3)OCCO4)c(F)c2)C(=O)O1)C(C)=O`, the melting point is reported as 200 to 202 °C. Compound `Cn1ncnc1COc1nn2c(-c3ccccc3F)nncc2c1-c1cccc(C#N)c1` has a melting point of 194 to 196 °C. With `Cc1nc(-n2cc(COc3ccccc3)nn2)sc1C(=O)NCc1ccccc1` the melting point was 140 to 143 °C. `Cc1ccc(-c2ccc3c(c2)C=C(C(=O)N2CCC(NC(=O)C(F)(F)F)CC2)CCO3)cc1` showed a melting point of 189 to 192 °C. Compound `CCCCCCN(Cc1ccc(-c2ccccc2-c2nnn[nH]2)cc1)c1ncc(C(=O)O)s1` has a melting point of 113 to 117 °C.
